Assay results from patent US20130072495A1, “FUSED BICYCLIC KINASE INHIBITORS” (OSI Pharmaceuticals, LLC, priority 2010, published 2013).

Columns and labels:
Assay type in all cases: cell-based
MET = target: T1, MET (Homo sapiens, UniProt P08581); assay: MET cell mechanistic assay (MKN45), phosphorylated MET levels; details: MKN45 cell line, four hours incubation, at least duplicate experiments, read-out: MET mech IC50
T1 construct: endogenous in cells; host or cells: MKN45
Procedure: The cellular activity of the compounds of the present invention against MET may be determined by the following procedure. MKN45 cells were plated in Falcon 3072 96-well plates in growth media (RPMI, 10% FBS, 1% L-glutamine) at a density of 5000 cells/well and incubated at 37° C., 5% CO2 overnight. The following day, one-tenth volume of a 10× concentration of compounds was added to the wells in a 6-point dilution series. The dilutions series was composed of an initial […] in DMSO, followed by a […] in growth media, for a final DMSO concentration on cells of 0.5%. Control wells were treated with 0.5% DMSO. The typical range of dilution was 10 μM to 3 nM. Once compound was added to the cells, plates were incubated for four hours at 37° C., 5% CO2. Plates were then washed in PBS, and lysed in triton-based lysis buffer. Lysates were transferred to a precoated capture plate made by Biosource (Cat # KHO0281). The phosphorylated MET levels were measured by incubating with a rabbit polyclonal antibody against phosphorylated MET ([pYpYpY1230/1234/1235]) followed by an anti-rabbit antibody conjugated to HRP. Signal was measured on a Wallac Victor plate reader at 450 nm. The DMSO signal of the control wells was defined as 100% and the percent of inhibition of phosphorylated MET was expressed as percent of control. IC50 values were determined from the percent of control data using a standard four-parameter model.
(§1) The IC50 values of exemplary compounds of the present invention determined in a MET cell mechanistic assay using the MKN45 cell line according to the procedures described herein in at least duplicate experiments are abbreviated as follows and are shown in Table 2: A, IC50≦0.1 μM; B, 0.1 μM<IC50≦0.5 μM; C, 0.5 μM<IC50≦2 μM; D, IC50>2 μM; ND, not determined. The Example # of Table 2 corresponds to the compound example number as illustrated in the Experimental section above.

MKN45 cells = assay: MKN45 cell proliferation assay (CellTiter-Glo); details: Homo sapiens, MKN-45, 72 h; MKN45 cell line, 3 days incubation, at least duplicate experiments; read-out: Prolif. IC50
Procedure: The effect of inhibitors on the proliferation of MKN45 cells was determined using the following protocol. MKN45 cells were plated in Corning 3917 96-well white tissue culture treated plates in growth medium (RPMI, 10% FCS) at a density of 5000 cells/well in a total volume of 135 μL and incubated at 37° C., 5% CO2, 95% humidity overnight. The following day, one-tenth volume of a 10× concentration of compounds was added to the wells in an 8-point dilution series. The dilution series was composed of an initial 1:5 dilution of a 10 mM stock of compound in DMSO, followed by serial 1:4 dilutions in DMSO, then a 1:20 dilution in growth medium prior to the 1:10 dilution into the cell plate. Final DMSO concentration on the cells was 0.1%, there were control wells treated with both 0.1% DMSO and no DMSO. The typical dilution range is 10 μM to 0.6 nM. Once the compound was added to the cells, plates were incubated for 3 days at 37° C., 5% CO2 at 95% humidity. On the third day, after allowing all cells and reagents to come to room temperature, 25 μL of CellTiter-Glo reagent (Promega # G7573) was added to the wells. Plates were shaken on a platform for 10 minutes prior to reading luminescence for 0.1 seconds. The signal of the control wells was taken as 100% growth and growth inhibition was expressed as percent of control. IC50 values were determined from the percent of control data using a standard four-parameter model.
as §1, with “a” for “a MET”, “cell proliferation” for “cell mechanistic”, “Table 1:” for “Table 2:”, “Table 1” for “Table 2”
Treatment of this cell line with a selective MET inhibitor led to induction of apoptosis and inhibition of proliferation, whereas non-MET-amplified cell lines were not affected. Smolen et al., Proc. Natl. Acad. Sci. USA, 103(7):2316-2321 (2006). This cell line is thus “driven” by MET, and antiproliferative effects correlate very well with the inhibition of MET phosphorylation so that the cell proliferation IC50 values can be used as surrogate for the MET cell mechanistic IC50 values. Under the assay conditions described herein, the IC50 values correlate nearly 1:1.

sfRON = target: T2, sfRON (Homo sapiens, UniProt Q04912); assay: sfRON cell mechanistic assay (HeLa), phosphorylated RON levels; details: sfRON transfected HeLa cells, four hours incubation, at least duplicate experiments, read-out: sfRON mech IC50
T2 construct: expressed in transfected cells; host or cells: HeLa (transient transfection, Lipofectamine-2000, sfRON-pcDNA plasmid)
T2 sequence (Q04912 913-1400 limits assumed): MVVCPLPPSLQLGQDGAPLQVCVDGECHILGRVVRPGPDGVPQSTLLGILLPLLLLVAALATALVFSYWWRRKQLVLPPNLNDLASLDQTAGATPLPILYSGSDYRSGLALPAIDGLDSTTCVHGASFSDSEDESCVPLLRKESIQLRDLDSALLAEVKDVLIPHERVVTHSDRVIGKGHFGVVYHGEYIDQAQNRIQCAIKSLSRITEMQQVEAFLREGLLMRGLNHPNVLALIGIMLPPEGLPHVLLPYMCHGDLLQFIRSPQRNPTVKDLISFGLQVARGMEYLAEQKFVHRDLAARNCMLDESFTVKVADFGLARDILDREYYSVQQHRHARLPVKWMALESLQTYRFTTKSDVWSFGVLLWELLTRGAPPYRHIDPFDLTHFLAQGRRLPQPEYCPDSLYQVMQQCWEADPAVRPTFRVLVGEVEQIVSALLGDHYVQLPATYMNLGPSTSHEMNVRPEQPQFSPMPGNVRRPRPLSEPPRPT
Procedure: The cellular activity of the compounds of the present invention against RON may be determined by the following procedure. HeLa cells were plated in Falcon 3072 96-well plates in growth media (DMEM, 10% FBS, 1% L-glutamine) at a density of 10000 cells/well and incubated at 37° C., 5% CO2 overnight. The following day, cells were transfected with 0.2 μg sfRON-pcDNA plasmid DNA with 0.5 μL Lipofectamine-2000 per well in the presence of 50 μL OPTI-MEM, incubated at 37° C., 5% CO2 overnight. Costar 3915 96-well assay plates were coated with rabbit Anti-RON antibody at 2.0 μg/mL, sealed, and incubated overnight at 4° C. On the third day, coated plates were washed with PBS and blocked with 3% BSA. For the sfRON transfected cells, one-tenth volume of a 10× concentration of compounds was added to the wells in a 6-point dilution series. The dilution series was composed of an initial 1:5 dilution of a 10 mM DMSO stock solution of compound in DMSO, followed by a 1:10 dilution in growth media, for a final DMSO concentration on cells of 0.5%. Control wells were treated with 0.5% DMSO. The typical range of dilution was 10 μM to 3 nM. Once compound was added to the cells, plates were incubated for four hours at 37° C., 5% CO2. Plates were then washed in PBS, and lysed in triton-based lysis buffer. Lysates were transferred to the blocked capture plates. The phosphorylated RON levels were measured by incubating with a Goat polyclonal antibody against phosphorylated RON ([pYpY1238/1239]) followed by an anti-Goat antibody conjugated to HRP. Signal was measured on a Wallac Victor plate reader with luminance. The DMSO signal of the control wells was defined as 100% and the percent of inhibition of phosphorylated RON was expressed as percent of control. IC50 values were determined from the percent of control data using a standard four-parameter model.
The IC50 values of exemplary compounds of the present invention determined in a sfRON cell mechanistic assay using the HeLa cell line according to the procedures described herein in at least duplicate experiments are abbreviated as follows and are shown in Table 3: A, IC50≦0.1 μM; B, 0.1 μM<IC50≦0.5 μM; C, 0.5 μM<IC50≦1 μM; D, IC50>1 μM; ND, not determined. The Example # of Table 3 corresponds to the compound example number as illustrated in the Examples section.

T1 sequence (P08581 25-1390): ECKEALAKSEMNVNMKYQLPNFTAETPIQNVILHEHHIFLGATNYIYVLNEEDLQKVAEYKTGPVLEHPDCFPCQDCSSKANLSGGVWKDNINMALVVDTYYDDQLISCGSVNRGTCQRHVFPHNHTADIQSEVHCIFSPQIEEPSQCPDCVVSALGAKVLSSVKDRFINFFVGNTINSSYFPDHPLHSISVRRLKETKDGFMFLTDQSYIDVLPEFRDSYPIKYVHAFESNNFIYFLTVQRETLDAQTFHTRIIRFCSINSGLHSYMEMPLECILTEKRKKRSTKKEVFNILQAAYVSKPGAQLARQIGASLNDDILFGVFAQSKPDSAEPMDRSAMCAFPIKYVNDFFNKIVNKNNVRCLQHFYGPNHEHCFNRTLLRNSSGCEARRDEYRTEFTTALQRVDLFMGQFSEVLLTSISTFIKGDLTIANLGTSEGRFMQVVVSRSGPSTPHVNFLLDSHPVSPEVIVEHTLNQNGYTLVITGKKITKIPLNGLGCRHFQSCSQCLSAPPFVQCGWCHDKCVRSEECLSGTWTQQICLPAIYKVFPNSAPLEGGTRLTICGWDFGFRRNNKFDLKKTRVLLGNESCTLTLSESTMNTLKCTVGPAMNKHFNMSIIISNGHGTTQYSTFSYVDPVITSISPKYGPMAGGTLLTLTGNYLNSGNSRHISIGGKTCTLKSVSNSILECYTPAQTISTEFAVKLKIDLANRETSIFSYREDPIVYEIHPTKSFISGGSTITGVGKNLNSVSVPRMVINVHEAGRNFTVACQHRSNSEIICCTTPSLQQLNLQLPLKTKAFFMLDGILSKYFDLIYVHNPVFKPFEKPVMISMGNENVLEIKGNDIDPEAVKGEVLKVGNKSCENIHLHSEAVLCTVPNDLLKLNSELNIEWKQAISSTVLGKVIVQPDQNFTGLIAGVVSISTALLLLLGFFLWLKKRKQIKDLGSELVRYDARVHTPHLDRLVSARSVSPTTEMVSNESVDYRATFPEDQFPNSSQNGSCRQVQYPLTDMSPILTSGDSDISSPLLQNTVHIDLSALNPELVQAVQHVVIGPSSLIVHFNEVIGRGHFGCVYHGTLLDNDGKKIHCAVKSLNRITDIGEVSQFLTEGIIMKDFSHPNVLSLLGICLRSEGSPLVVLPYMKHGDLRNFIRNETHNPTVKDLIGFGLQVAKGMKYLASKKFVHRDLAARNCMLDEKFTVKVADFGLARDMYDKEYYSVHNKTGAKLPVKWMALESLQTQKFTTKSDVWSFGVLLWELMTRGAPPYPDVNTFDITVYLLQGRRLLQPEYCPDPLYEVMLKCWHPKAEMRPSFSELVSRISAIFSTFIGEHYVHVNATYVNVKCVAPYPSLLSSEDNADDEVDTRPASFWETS

Row | IC50 (MET) | IC50 (MKN45 cells) | IC50 (sfRON) | Molecule
1 | – | ≤ 100 nM | 500 to 1000 nM | C[C@H](c1c(Cl)ccc(F)c1Cl)n1ccc2ncc(-c3cnn(C4CCNCC4)c3)cc21 [Example 5, 1-[(1R)-1-(2,6-Dichloro-3-fluorophenyl)ethyl]-6-[1-(piperidin-4-yl)-1H-pyrazol-4-yl]-1H-pyrrolo[3,2-b]pyridine]
2 | – | 500 to 2000 nM | > 1000 nM | C[C@H](c1c(Cl)ccc(F)c1Cl)n1ccc2ncc(-c3cnn(C)c3)cc21 [Example 4, 1-[(1R)-1-(2,6-dichloro-3-fluorophenyl)ethyl]-6-(1-methyl-1H-pyrazol-4-yl)-1H-pyrrolo[3,2-b]pyridine]
3 | – | 100 to 500 nM | 100 to 500 nM | C[C@H](c1c(Cl)ccc(F)c1Cl)n1ccc2ncc(-c3cnn([C@H]4CC[C@H](O)CC4)c3)cc21 [Example 7, trans-4-(4-{1-[(1R)-1-(2,6-Dichloro-3-fluorophenyl)ethyl]-1H-pyrrolo[3,2-b]pyridin-6-yl}-1H-pyrazol-1-yl)cyclohexanol]
4 | 100 to 500 nM | 100 to 500 nM | – | CC(c1c(Cl)ccc(F)c1Cl)c1c[nH]c2ncc(-c3cnn(C4CCNCC4)c3)nc12 (stereo not shown) [Example 2, 7-[1-(2,6-dichloro-3-fluorophenyl)ethyl]-2-(1-piperidin-4-yl-1H-pyrazol-4-yl)-5H-pyrrolo[2,3-b]pyrazine]
5 | – | 100 to 500 nM | 500 to 1000 nM | C[C@H](c1c(Cl)ccc(F)c1Cl)n1ccc2ncc(-c3cnn(C[C@H](O)CO)c3)cc21 [Example 8, (2S)-3-(4-{1-[(1R)-1-(2,6-Dichloro-3-fluorophenyl)ethyl]-1H-pyrrolo[3,2-b]pyridin-6-yl}-1H-pyrazol-1-yl)propane-1,2-diol]
6 | – | 100 to 500 nM | 500 to 1000 nM | C[C@H](c1c(Cl)ccc(F)c1Cl)n1ccc2ncc(-c3cnn(C4CCN(C=O)CC4)c3)cc21 [Example 6, 4-(4-{1-[(1R)-1-(2,6-Dichloro-3-fluorophenyl)ethyl]-1H-pyrrolo[3,2-b]pyridin-6-yl}-1H-pyrazol-1-yl)piperidine-1-carbaldehyde]

Continued, molecule first:

Row | Molecule | IC50 (MET) | IC50 (MKN45 cells) | IC50 (sfRON)
7 | CC(c1c(Cl)ccc(F)c1Cl)c1c[nH]c2ncc(-c3cnn(C4CCN(C=O)CC4)c3)nc12 (stereo not shown) [Example 3, 4-(4-{7-[1-(2,6-dichloro-3-fluorophenyl)ethyl]-5H-pyrrolo[2,3-b]pyrazin-2-yl}-1H-pyrazol-1-yl)piperidine-1-carbaldehyde] | 100 to 500 nM | 500 to 2000 nM | –
8 | CC(c1c(Cl)ccc(F)c1Cl)c1c[nH]c2nnc(-c3cnn(C4CCNCC4)c3)cc12 (stereo not shown) [Example 16, 5-[1-(2,6-Dichloro-3-fluorophenyl)ethyl]-3-[1-(piperidin-4-yl)-1H-pyrazol-4-yl]-7H-pyrrolo[2,3-c]pyridazine] | > 2000 nM | > 2000 nM | –
9 | COc1ccc(F)c(Cl)c1[C@@H](C)c1n[nH]c2ncc(-c3cnn([C@H]4CC[C@H](O)CC4)c3)cc12 [Example 10, trans-4-(4-{3-[(1R)-1-(2-Chloro-3-fluoro-6-methoxyphenyl)ethyl]-1H-pyrazolo[3,4-b]pyridin-5-yl}-1H-pyrazol-1-yl)cyclohexanol] | – | ≤ 100 nM | 100 to 500 nM
10 | 7-[(2,6-dichloro-3-fluorophenyl)methoxymethyl]-2-(1-piperidin-4-yl-1H-pyrazol-4-yl)-5H-pyrrolo[2,3-b]pyrazine [Example 1] | 100 to 500 nM | – | –
